In patent publication US8349297B2, “Topical formulations” (Medpharm Limited, priority 2005, dated 2013):
Blank lines part the entries; values can stand above or below the molecule they belong to.

Tests used:
[1] = Solubility studies in PET canisters (clarity observed, ternary phase plot); assay type: physicochemical
Method: Solubility studies were conducted in clear, PET canisters. Stir bars were added to the canister and the canister was tared on an analytical balance. […] Lids were placed on the canisters and crimped. The solutions were left to stir overnight. […] All percentages are based on weight/weight calculations.

[2] = Stability of BMV in the skin permeation system; assay type: physicochemical; conditions: at both 4° C. and 37° C.
Method: Stratum corneum was isolated from a frozen human skin sample using standard protocol. The prepared skin was mounted on a filter support and placed on the receiver section of an upright Franz cell. The donor compartment was then fixed on top of the receiver compartment and secured using Parafilm. A magnetic flea and thermostatically regulated receiver fluid (90:10 Acetate Buffer pH=4.5:EtOH) were added to each Franz cell. These cells were placed in a bath at 37° C. and allowed to equilibrate and after a few hours a blank sample was taken from each cell. The integrity of each cell was determined via inversion and an appropriate amount of formulation was applied to the donor chamber of the Franz cell. […] Samples were held at room temperature until HPLC analysis.

[3] = Phase diagram construction with visual solubility assessment
Method: Formulations were prepared by the sequential weighing of the drug followed by the remaining excipients into a 10 mL PET glass coated canister. A magnetic stirrer bar was added and the formulations were crimped with a 100 μL valve. The formulations were allowed to shake for approximately 16 h at room temperature prior to the addition of HFA, and then shaken for a further 8 h prior to visual solubility assessment.

- PVP level at which the drug becomes insoluble [1]: around 3 % PVP
- maximum solubility [1]: 1-1.2%
- time for which BMV was shown to be stable in the system [2]: up to 72 h
SMILES: CCCCC(=O)O[C@]1(C(=O)CO)[C@@H](C)C[C@H]2[C@@H]3CCC4=CC(=O)C=C[C@]4(C)[C@@]3(F)[C@@H](O)C[C@@]21C [BMV, betamethasone valerate]

SMILES: O=C(OOC(=O)c1ccccc1)c1ccccc1 [BPO, Benzoyl peroxide]
- drug level at which a saturated system could be formed ([3]; 10% ethanol, PVP K90): 1%

- drug level at which a saturated system could be formed ([3]; 83% HFA, ethanol level varied, co-povidone S-630): 2%
SMILES: O=C(O)c1ccccc1O [salicylic acid]
